Experimental findings from patent US5955489A, “Taxane derivatives, the preparation thereof and formulations containing them” (Indea S.p.A., priority 1996, dated 1999) are described below.

Read-outs that look alike come from different tables or passages of the source.

Experiment [1] concerns Line MDA (normal ovary cell line). The experiment can be described thus: cytotoxicity on a normal ovary cell line (Line MDA). It counts as cell-based. Particulars: read-out: IC50 Line MDA.
The subject of experiment [2] is Line MCF7-ADRr (adriamycin-resistant). Nature of the experiment: cytotoxicity on an adriamycin-resistant cell line (Line MCF7-ADRr). To be noted: read-out: IC50 Line MCF7-ADRr. Format: cell-based.
Setting [3] is: Line MDA, normal ovary cell line.

With “13-(N-Boc-phenylisoserinyl)-10-dehydro-10-deacetyl-baccatine III pyrazoline [Compound of example 4]”, the IC50 (commonly the point on the concentration scale where inhibition reaches its midpoint) in experiment [1] (setting [3]) was 1.2 nM; in experiment [2] it was 264 nM.

Regarding `CC(=O)O[C@@]12CO[C@@H]1CC1NN=C3C(=O)C4=C(C)[C@@H](OC(=O)[C@H](O)[C@@H](NC(=O)OC(C)(C)C)c5ccccc5)[C@@H]5OC(=O)O[C@]5([C@@H](OC(=O)c5ccccc5)[C@H]2[C@]31C)C4(C)C` (stereo partly drawn) [Compound of example 6, 13-(N-Boc-phenyl-isoserinyl)-1,14-carbonate10-dehydro-10-deacetyl-baccatine III pyrazoline], the IC50 in experiment [1] amounted to 2.1 nM.

As for `CC(=O)O[C@H]1C(=O)[C@@]2(C)[C@H]([C@H](OC(=O)c3ccccc3)[C@]3(O)C[C@H](OC(=O)[C@H](O)[C@@H](NC(=O)c4ccccc4)c4ccccc4)C(C)=C1C3(C)C)[C@]1(OC(C)=O)CO[C@@H]1C[C@@H]2O` [Paclitaxel, reference compound], the IC50 is 2.4 nM in experiment [1] and 2600 nM in experiment [2].

For `CC(=O)O[C@@]12CO[C@@H]1CC1NN=C3C(=O)C4=C(C)[C@@H](OC(=O)[C@H](O)[C@@H](NC(=O)c5ccccc5)c5ccccc5)C[C@@](O)([C@@H](OC(=O)c5ccccc5)[C@H]2[C@]31C)C4(C)C` (stereo partly drawn) [Compound of example 2, 10-deacetyl-10-dehydro-Paclitaxel pyrazoline], the IC50 in experiment [1] came to 3.1 nM.

Consider `CC(=O)O[C@@]12CO[C@@H]1CC1NN=C3C(=O)C4=C(C)[C@@H](OC(=O)[C@H](O)[C@H](CC(C)C)NC(=O)OC(C)(C)C)C[C@@](O)([C@@H](OC(=O)c5ccccc5)[C@H]2[C@]31C)C4(C)C` (stereo partly drawn) [Compound of example 5, 13-(N-Boc-3'-isobutyl)-isoserinyl-10-dehydrobaccatine III pyrazoline], for which, in experiment [1], the IC50 came out at 1.4 nM.

`CC(=O)O[C@@]12CO[C@@H]1C[C@H](O)[C@@]1(C)C(=O)[C@H](O)C3=C(C)[C@@H](OC(=O)[C@H](O)[C@@H](NC(=O)OC(C)(C)C)c4ccccc4)C[C@@](O)([C@@H](OC(=O)c4ccccc4)[C@H]21)C3(C)C` [Docetaxel, reference compound]: the IC50 was found to be 0.8 nM in experiment [1] (setting [3]) and 700 nM in experiment [2] (Line MCF7-ADRr, adriamycin-resistant).
